Data on three molecules can be found in patent publication US20250134907A1, “FUSED DIAZEPINES AS AGONISTS OF THE INSULIN-LIKE 3 (INSL3) PEPTIDE RECEPTOR RXFP2 AND METHODS OF USE THEREOF” (The United States of America,as represented by the …, priority 2022, published 2025).

The term EC50 denotes the midpoint of the concentration-response curve. A low value points to greater potency.

Assay [1] deals with T1, RXFP2 (Homo sapiens, UniProt Q8WXD0).
T1 construct: expressed in transfected cells
Put plainly: HTRF cAMP assay in HEK293T cells stably expressing RXFP2 (HEK-RXFP2). It counts as cell-based. To be noted: for % EFF vs. 100 nM INSL3 (c): normalized to 100 nM INSL3 cAMP response. In short, it runs like this:
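HEK-RXFP2 cells in serum-free DMEM were treated with compound up to 25 μM for 1 h at 37°C, and cAMP was read by HTRF immunoassay. Condition (a): 20,000 cells/well, 200 μM IBMX, normalized to 1 nM INSL3. Condition (b): 10,000 cells/well, 1 nM INSL3. Condition (c): 7,500 cells/well, no IBMX, 100 nM INSL3.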

In assay [2] the test system is primary HCO cells. Briefly: OsteoImage mineralization assay in primary HCO cells. It counts as cell-based, human. To be noted: 14 days. As to the method:
The biological activity of the RXFP2 agonists was tested in primary HCO cells (ScienCell Research Laboratories, San Diego, CA) by measuring their ability to induce osteoblast mineralization. A fluorescent-based assay (OSTEOIMAGE™ Mineralization Assay, Lonza, Switzerland) was used that measures hydroxyapatite, which is the main mineral component of bone. For this assay, HCO cells were seeded in 0.1% gelatin-coated 96 well black-walled flat-bottom clear plates at 7,000 cells/well in 100 μL/well of growth medium (DMEM, 10% FBS, 1× Pen/Strep) and allowed to attach overnight at 37° C. and 5% CO2. The next day, growth medium was changed to 100 μL/well of mineralization medium (growth medium+10 mM β-glycerophosphate, 50 μg/ml ascorbic acid, 10 nM dexamethasone), along with the respective treatments. Cells were treated with 1 μL/well of compound (1, 3, or 5 μM) or vehicle (serum-free DMEM, 0.05% DMSO). Medium and treatments were replaced every 2-3 days and cells were incubated at 37° C. and 5% CO2 for 14 days. Hydroxyapatite deposits were evaluated using the OSTEOIMAGE™ Mineralization Assay (Lonza, Switzerland). At treatment day 14, cells were rested 30 minutes at room temperature for equilibration, washed with 200 μL/well PBS, and fixed in 100 μL/well 4% formaldehyde for 15 minutes. Cells were washed once with 200 μL/well assay wash buffer and 100 μL/well of assay staining reagent was added as per manufacturer's protocol. Cells were incubated at room temperature for 30 minutes, protected from light. After staining, cells were washed 3 times with 200 μL/well wash buffer and wells were filled with a final 200 μL/well wash buffer. Mineralization was quantified using a CLARIOstar plate reader (BMG Labtech, Germany) and representative images of the hydroxyapatite bone-like nodules were captured using a fluorescence microscope (Nikon Eclipse TS100 attached to an Olympus DP70 camera). […] Mineralization activity induced by compounds was normalized to DMSO vehicle as 100% mineralization. […]

Where [3] appears, read: condition (c): 7,500 cells/well, IBMX omitted.

T1 sequence (Q8WXD0 whole entry): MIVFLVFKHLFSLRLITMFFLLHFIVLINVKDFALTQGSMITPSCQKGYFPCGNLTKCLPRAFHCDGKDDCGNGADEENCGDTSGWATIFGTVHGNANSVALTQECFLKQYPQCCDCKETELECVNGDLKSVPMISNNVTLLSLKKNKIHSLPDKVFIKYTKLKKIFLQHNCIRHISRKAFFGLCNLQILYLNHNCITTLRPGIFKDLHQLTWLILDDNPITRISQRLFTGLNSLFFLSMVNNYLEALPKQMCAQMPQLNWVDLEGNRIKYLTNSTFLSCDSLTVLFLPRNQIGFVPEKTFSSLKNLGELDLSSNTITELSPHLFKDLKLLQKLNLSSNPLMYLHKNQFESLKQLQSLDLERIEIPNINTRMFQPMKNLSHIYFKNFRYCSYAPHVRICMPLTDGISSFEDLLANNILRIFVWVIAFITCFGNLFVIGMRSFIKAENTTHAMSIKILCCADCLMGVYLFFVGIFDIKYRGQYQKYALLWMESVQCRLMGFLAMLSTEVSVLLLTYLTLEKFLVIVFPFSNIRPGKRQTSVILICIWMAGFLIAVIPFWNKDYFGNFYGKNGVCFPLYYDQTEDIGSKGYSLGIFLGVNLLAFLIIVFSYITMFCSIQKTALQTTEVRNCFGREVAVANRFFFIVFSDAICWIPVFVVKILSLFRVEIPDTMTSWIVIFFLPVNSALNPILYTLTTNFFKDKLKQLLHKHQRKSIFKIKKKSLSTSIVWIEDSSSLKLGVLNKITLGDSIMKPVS

For the molecule `O=C1Nc2ccc(-c3cccc(C(F)(F)F)c3)cc2C(=O)N2CCN(C(=O)COc3ccc(OC(F)(F)F)cc3Br)C[C@@H]12` [Example 123, (S)-2-(2-(2-bromo-4-(trifluoromethoxy)phenoxy)acetyl)-8-(3-(trifluoromethyl)phenyl)-1,3,4,12a-tetrahydrobenzo[e]pyrazino[1,2-a][1,4]diazepine-6,12 (2H, 11H)-dione], in assay [1] (compared with Examples 187, 158, 153), the “activity in the HTRF cAMP screen” value is reported as “weaker activity”. Besides, the concentration giving a half-maximal response (EC50) in assay [1] (condition (b): 10,000 cells/well, IBMX 200 μM) is 18 to 23.3 nM; in assay [1] (setting [3]), 46.2 to 73.7 nM. Besides, the “% EFF vs. 1 nM INSL3 (b)” value in assay [1] (condition (b): 10,000 cells/well, IBMX 200 μM, normalized to 1 nM INSL3 cAMP response) is given as 113.66-166.88%. The “% EFF vs. 100 nM INSL3 (c)” value in assay [1] (setting [3]) is reported as 38.35-49.8%. Also, the “mineralization (hydroxyapatite) vs. DMSO vehicle” value in assay [2] (1, 3, or 5 μM) is reported as “does not seem to increase mineralization”.
With `O=C1Nc2ccc(-c3cc(C(F)(F)F)cc(C(F)(F)F)c3)cc2C(=O)N2CCN(C(=O)COc3ccc(OC(F)(F)F)cc3Br)C[C@@H]12` [Example 158, (S)-8-(3,5-Bis(trifluoromethyl)phenyl)-2-(2-(2-bromo-4-(trifluoromethoxy)phenoxy)acetyl)-1,3,4,12a-tetrahydrobenzo[e]pyrazino[1,2-a][1,4]diazepine-6,12 (2H, 11H)-dione], in assay [1] (setting [3]), the 50% effective concentration (EC50) lay within 167 to 1570 nM and the “% EFF vs. 100 nM INSL3 (c)” value is recorded as 48.99-81.93%. The “mineralization (hydroxyapatite) vs. DMSO vehicle” value in assay [2] (5 μM) was “significant increase”.
In the case of `O=C1Nc2ccc(-c3cc(C(F)(F)F)cc(C(F)(F)F)c3)cc2C(=O)N2CCN(C(=O)COc3ccc(OC(F)(F)F)cc3I)C[C@@H]12` [Example 187, (S)-8-(3,5-bis(trifluoromethyl)phenyl)-2-(2-(2-iodo-4-(trifluoromethoxy)phenoxy)acetyl)-1,3,4,12a-tetrahydrobenzo[e]pyrazino[1,2-a][1,4]diazepine-6,12 (2H, 11H)-dione], in assay [1] (setting [3]), the EC50 fell in the range of 128 to 568 nM and the “% EFF vs. 100 nM INSL3 (c)” value was 87.28-147.65%. Also, the “mineralization (hydroxyapatite) vs. DMSO vehicle” value in assay [2] (5 μM) is on record as “significant increase”.
